The target in experiment [1] is T1, human PPAR-γ-ligand binding domain (LBD) (Homo sapiens, UniProt P37231).
T1 construct: expressed in transfected cells; host or cells: BE(2)C cells
T1 sequence (P37231 238-503 limits assumed): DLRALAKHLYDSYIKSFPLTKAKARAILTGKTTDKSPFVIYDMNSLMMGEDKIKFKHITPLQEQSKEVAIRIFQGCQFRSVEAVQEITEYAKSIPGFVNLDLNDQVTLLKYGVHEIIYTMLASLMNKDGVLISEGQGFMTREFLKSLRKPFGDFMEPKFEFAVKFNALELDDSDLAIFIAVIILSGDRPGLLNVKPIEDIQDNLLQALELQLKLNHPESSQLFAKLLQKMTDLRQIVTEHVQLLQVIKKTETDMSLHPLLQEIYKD
Description: GAL4-PPAR-γ-LBD luciferase reporter assay in BE(2)C cells. The conditions noted are these: various concentrations up to 50 μM, 20 hours, FIGS. 1A and 1B. The format is cell-based. The procedure: (§1) To examine whether amodiaquine serves as a ligand of PPAR-γ or PPAR-α, three types of vectors were used.
(§2) The activation of luciferase expression was detected 6 hours after BE(2)C cells were transformed with a GAL4-PPAR-γ-LBD plasmid or GAL4-PPAR-α-LBD plasmid, the GAL4-luciferase vector and the β-galactosidase vector, and growing amodiaquine-treated cells for 20 hours in a 5% CO2 incubator.

For a further experiment, the target named is T2, PPAR-α-LBD (Homo sapiens, UniProt Q07869).
T2 construct: expressed in transfected cells; host or cells: BE(2)C cells
T2 sequence (Q07869 239-466 limits assumed): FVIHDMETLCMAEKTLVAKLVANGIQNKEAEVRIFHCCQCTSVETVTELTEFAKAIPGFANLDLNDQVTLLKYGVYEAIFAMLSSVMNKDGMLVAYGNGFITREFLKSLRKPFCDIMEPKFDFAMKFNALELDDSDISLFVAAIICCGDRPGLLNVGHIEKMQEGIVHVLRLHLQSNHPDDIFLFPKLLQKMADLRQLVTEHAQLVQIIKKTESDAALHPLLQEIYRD
The experiment can be described thus: GAL4-PPAR-α-LBD luciferase reporter assay in BE(2)C cells. The note with it: various concentrations up to 50 μM, 20 hours, FIGS. 1C and 1D. The class given is cell-based. On the procedure: as §1, §2
A general note: Reporter assays use an easily measured gene product as a stand-in for the process of interest.

The test system of experiment [2] is high fat-induced obesity mice. Description: Intraperitoneal insulin tolerance test (IPITT) in high fat-induced obesity mice. The class given is in vivo, mouse. The conditions noted are these: 0.5 U/kg insulin i.p.; for blood glucose concentration after 2 hours (IPITT): HFD with simultaneous substance, FIG. 7B; for time of lowest blood glucose level (IPITT): substance given after long-term HFD induction, FIG. 7C. The procedure: After 16-hour fasting, 0.5 U/kg of insulin was intraperitoneally administered to each animal in the controls and the experimental group, and a blood glucose concentration was measured every 30 minutes for 2 hours. For measurement of the blood glucose concentration, an IPITT was used.

The next experiment relates to C2C12 myotube cells. Description: Glucose uptake ([3H]2-DOG) evaluation test in C2C12 myotube cells. The note with it: C2C12 myotubes, 10 and 30 μM amodiaquine for 24 hours, compared with 50 μM rosiglitazone; FIG. 2. The format is cell-based, mouse. On the procedure: Phosphorylation of insulin receptors occurs due to signal transduction by insulin in muscle, adipose or liver cells, and therefore when various proteins located downstream are phosphorylated, glucose uptake increases resulting in reduced blood glucose. A glucose uptake evaluation test was performed to identify whether amodiaquine is effective in diabetes. C2C12 myoblasts, which are muscle cells, were cultured in 10% […]-containing DMEM. When the cell density reached approximately 80 to 90%, the medium was replaced with fresh 2% horse serum-containing DMEM, and cell differentiation of the C2C12 myoblasts to myotubes was induced to make them completely differentiated, followed by carrying out an experiment. […] Washing was repeated three times every twenty minutes. Subsequently, 1 ml of KRP buffer was injected, a solution (0.2 mM, 0.2 μCi) prepared by dissolving unlabeled 2-DOG and [^3H]2-DOG (Amersham Pharmacia) in KRP buffer was added at 37° C. to allow treatment for exactly 10 minutes. The resulting cells were washed with 3 ml of cold phosphate buffered saline (PBS) to stop a glucose uptake reaction, further washed twice with PBS, air-dried for approximately 1 hour, and lyzed with 1 ml of 0.1% SDS by pipetting, and then 300 μl of the lysate was obtained to detect radioactivity using a liquid scintillation counter (Perkin Elmer, USA).

Experiment [3] has as its system KKAy mice. The experiment can be described thus: Fasting blood glucose in KKAy mice. The class given is in vivo, mouse. The conditions noted are these: 18 mg/kg daily oral for 6 weeks, control 132.4 mg/dl. On the procedure: (§3) Following one-week acclimation, 5-week-old KKAy mice purchased from Saeronbio Inc. were divided into two groups of 5.
(§4) The first group was set as a negative control by administering PBS, and the second group was treated by daily oral administration of amodiaquine at 18 mg/kg for 6 weeks.
(§5) Fasting blood glucose was measured for 6 weeks from whole blood taken from the caudal vein of each mouse 1, 2, 5 and 6 weeks after 12-hour fasting. For blood glucose measurement, a blood glucose strip (Green Cross, Gyeonggi-do, Korea) was used. […] In addition, to identify the blood glucose regulation effect, 2 g/kg of glucose was intraperitoneally injected into the mice of the control and experimental group after 16-hour fasting, and the level of blood glucose was measured every 30 minutes for 2 hours. For measurement of the blood glucose concentration, an intraperitoneal glucose tolerance test (IPGTT) was used.

Experiment [4] has as its system KKAy mice. The experiment can be described thus: Intraperitoneal glucose tolerance test (IPGTT) in KKAy mice. The format is in vivo, mouse. The conditions noted are these: 18 mg/kg daily oral for 6 weeks, 2 g/kg glucose i.p. after 16-hour fasting, control 293.2 mg/dl. On the procedure: as §3, §4, §5
Experiment [5] concerns KKAy mice. Description: Glycated hemoglobin (HbA1C) content in KKAy mice. The class given is in vivo, mouse. The note with it: 18 mg/kg daily oral for 6 weeks, FIG. 4. The procedure:
To detect a change in glycated hemoglobin content in mice by amodiaquine, after 1-week acclimation, 5-week-old KKAy mice were purchased from Saeronbio Inc. were divided into two groups of 5. Like in Example 3, the first group of mice were set as a control by administering PBS, and the second group was treated by daily oral administration of amodiaquine at 18 mg/kg for 6 weeks using a 1 ml syringe. To detect an effect of amodiaquine on reducing glycated hemoglobin content, whole blood was taken from the caudal vein of each mouse in the control and experimental group, injected into an easy A1c cartridge, and then assessed using an easy A1c analyzer (Asan Pharmaceutical Co., Ltd., Seoul, Korea). An independent group t-test was performed on the experimental group and the control to identify significance in the test results, and a statistically significant difference was shown (**p<0.005).

Experiment [6] is described as follows: Body weight of high fat-induced obesity mice. The format is in vivo, mouse. The note with it: C57BL/6 mice, amodiaquine 20 mg/kg. On the procedure: The mice were divided into groups of 7, freely fed water and diets in a cage, and then acclimated for 1 week before an experiment. […] [table] […] An average body weight was calculated by dividing the sum of weights of 7 mice per group by the number of mice.

For experiment [7], the system named is high fat-induced obesity mouse. Description: 4° C. cold test (thermal production) in high fat-induced obesity mice. The format is in vivo. The note with it: HFD mice, 14 weeks, amodiaquine 20 mg/kg; 4° C. for up to 6 hours; versus high fat obesity-induced mouse; FIG. 6. The procedure: To measure a thermal production capability with respect to mice fed a high fat diet for 14 weeks among the experimental animals designed in Example 5, a 4° C. cold test was performed (Spiegelman B. M. et al., Cell 92: 829-839, 1998). Hereinafter, the measurement method will be described in detail. A body temperature of mice in the high fat-induced obesity mouse groups was measured before being exposed to 4° C. and recorded as a test start temperature, and then the mice were exposed to 4° C. for up to 6 hours, followed by measuring a body temperature. The body temperature was measured using a rectal thermometer for a mouse (testo 925, Germany) A thermal production value indicated a temperature measured every hour.

Experiment [8] has as its system high fat-induced obesity mice. Description: Oral glucose tolerance test (OGTT) in high fat-induced obesity mice. The class given is in vivo, mouse. The note with it: HFD mice with amodiaquine; 2 g/kg glucose oral after 16-hour fasting; HFD control 180.5 mg/dl; FIG. 7A. On the procedure: After 16-hour fasting, 2 g/kg of glucose was orally administered to each animal in the controls and experimental group, and a blood glucose concentration was measured every 30 minutes for 2 hours. For measurement of the blood glucose concentration, an OGTT was used.

The test system of experiment [9] is liver of the high fat-induced obesity mouse. Description: Fatty liver histology (hematoxylin-eosin) in high fat-induced obesity mice. The format is in vivo. The conditions noted are these: HFD with amodiaquine for 14 weeks; FIG. 8.
Description: Among the experimental animals designed in Example 5, mice in the high fat-induced obesity mouse group fed a high fat diet for 14 weeks were sacrificed by cervical spine dislocation, fixed on a dissection stand, and subjected to abdominal dissection with a scalpel to extract the liver. The extracted liver tissue was fixed in a 10% formalin solution to prevent contracted deformation. After the fixed tissue was washed with running water after 24 hours, general tissue dehydration, clearing and impregnation were performed using an automatic tissue processor (6460B, Sakura, Japan) for 14 hours, and manufacture of paraffin blocks and cooling were performed using an automated embedding device (Tissue-Tex, Japan). The manufactured paraffin blocks were continuously sliced to a thickness of 4 to 5 μm in a vertical direction of the tissue using a rotary microtome 2040 (Japan), and attached to slides after processing using a water bath and a slide warming table. The thin tissue section was stained with hematoxylin, an excessively-stained part was washed with running tap water, and then the resulting section was dipped in 1% HCl and a 70% A/C solution 3 to 5 times to stain the nuclei blue. […]

SMILES strings stand for the structures.

This note sets out measurements from US10004727B2, “Composition for preventing, alleviating or treating metabolic diseases, containing amodiaquine as active ingredient” (POSTECH ACADEMY—INDUSTRY FOUNDATION, priority 2015, dated 2018).

`CCN(CC)CCCC(C)Nc1ccnc2cc(Cl)ccc12` (stereo not drawn) [chloroquine, 7-chloro-4-(4-diethylamino-1-methylbutylamino)quinoline]: in experiment [1], the “PPAR-γ activity (luciferase expression)” value is given as “PPAR-γ activity was not shown”. Also, the “PPAR-α activity (luciferase expression)” value on PPAR-α-LBD is given as “did not show the PPAR-α activity”.
On to `Cc1cccc(Nc2cc(Cl)nc(SCC(=O)O)n2)c1C` [WY-14,643], for which, in [1], the “PPAR-γ activity (luciferase expression)” value was “PPAR-γ activity was not shown”. For the same molecule, the “blood glucose concentration after 2 hours (IPITT)” value in experiment [2] is given as “maintained lower than the fasting blood glucose concentration”.
As to `CCN(CC)Cc1cc(Nc2ccnc3cc(Cl)ccc23)ccc1O` [amodiaquine, 4-[(7-chloroquinolin-4-yl)amino]-2-[(diethylamino)methyl]phenol], the “PPAR-γ activity (luciferase expression)” value in experiment [1] is reported as “higher concentration-dependent PPAR-γ activity”. For the same molecule, at PPAR-α-LBD, the “PPAR-α activity (luciferase expression)” value is “high concentration-dependent PPAR-α activity”. Moreover, in the experiment on C2C12 myotube cells, the glucose uptake entry was “further increased than that in the rosiglitazone-treated group”. Further, in the experiment on KKAy mice [3], the “fasting blood glucose concentration” value is 100.2 mg/dL. For the same molecule, the “blood glucose concentration 2 hours after glucose loading (IPGTT)” value with KKAy mice [4] came out at 207 mg/dL. Moreover, the “production of glycated hemoglobin relative to the control mice” value with KKAy mice [5] is given as roughly 69%. Moreover, in experiment [6] (HFD with substance for 14 weeks, FIG. 5A), the “body weight versus high fat-induced obesity mouse (prevention)” value is “significantly lower than that of the high fat-induced obesity mouse”. Further, in experiment [6] (substance for 7 weeks after 15-week HFD induction, rosiglitazone 50 mg/kg, FIG. 5C), the “body weight versus high fat-induced obesity mouse (treatment)” value is “significantly lower than that of the high fat-induced obesity mouse”. The “body temperature on exposure to 4° C. (thermal production)” value in experiment [7] is listed as “less decreased in body temperature”. For the same molecule, the “blood glucose concentration 2 hours after glucose loading (OGTT)” value in experiment [8] amounted to 139.1 mg/dL. Also, in experiment [2], the “blood glucose concentration after 2 hours (IPITT)” value was “maintained lower than the fasting blood glucose concentration” and the “time of lowest blood glucose level (IPITT)” value was found to be 30 min. Moreover, the “liver appearance (fat accumulation, hematoxylin-eosin)” value in experiment [9] is recorded as “almost the same appearance as that of a normal mouse”.
As to `CN(CCOc1ccc(CC2SC(=O)NC2=O)cc1)c1ccccn1` (stereo not drawn) [rosiglitazone], the “time of lowest blood glucose level (IPITT)” value in experiment [2] is 60 min.
